Experimental data from patent US6743822B2, “Reduction of hair growth” (The Gillette Company, priority 2001, dated 2004).
Where “and” joins values, the source holds several entries; their conditions need not be identical. Equal entries are not always repeated. Entries after “also recorded” stand apart in the source; their conditions may differ.

Columns and labels:
[1] = test system: Human hair follicles in culture (facial skin); experiment: Human Hair Follicle Growth assay; assay type: cell-based; settings: 0.5 mM, seven days in culture
Protocol: Hair follicles were isolated from human facial (obtained from patients who underwent face lift surgery) skin samples using fine forceps under a dissecting microscope and grown in tissue culture Williams E medium—supplemented with insulin (10 μg/ml), glutamine (2 mM), hydrocortisone ([…]) and antibiotics/antimycotics (pen/strep). Hair lengths were determined on day 0, and day 7. Human hair follicles in culture were treated with 0.5 mM concentration of L-DFMO, D-DFMO, D,L-DFMO. Controls were cultured in Williams E tissue culture medium without DFMO. The increase in hair fiber length was determined over seven days. […] Only L-DFMO produced statistically significant reduction in hair growth (p=0.003) in this time period. […] The “P” values, as determined by paired test analysis, were 0.97, 0.78 and 0.003 for the D,L-DFMO, D-DFMO and L-DFMO, respectively.

[2] = test system: Hamster flank organ hair follicles; experiment: Golden Syrian Hamster hair follicle density assay (image analysis); assay type: in vivo; settings: 7 days, dose 0.5%, vehicle of Example 2
Protocol: (§1) Hamster flank organs were treated topically with D,L-DFMO or L-DFMO with the contra-lateral side treated with the carrier vehicle without DFMO. Animals were sacrificed at the indicated time-point (4 days or 7 days) and back skins containing the flank organ were removed for analysis. Glycerin was applied to the underside of the dorsal skin of the hamster flank organ regions. Flank organ hair follicle mass and density were assessed, by imaging the region with a digital camera, and analysis of the images was performed with Ultimage/Pro (version 2.5) software by […]. This technique permitted the quantification of hair follicle mass based on particle area and number, and hair follicle density based on particle number.

[3] = test system: flank organs (hair growth) of male intact Golden Syrian hamsters; experiment: Golden Syrian Hamster assay (flank organ hair mass); assay type: in vivo; settings: dose 0.3%, topical; for Hair Mass in mg (drug treated): vehicle of Example 2, thirteen applications; for Percent inhibition (hair mass): vehicle of Example 2, versus vehicle treated flank organ
Source text: Male intact Golden Syrian hamsters are considered acceptable models for human beard hair growth in that they display oval shaped flank organs, one on each side, each about 8 mm. in major diameter. These organs produce fine light colored hair typical of the animal pelage found on the body. In response to androgens the flank organs produce dark coarse hair similar to male human beard hair. To evaluate the effectiveness of a composition, the flank organs of each of a group of hamsters are depilated by applying a thioglycolate-based chemical depilatory (Surgex) and/or shaved. To one organ of each animal 10 μl of vehicle alone once a day is applied, while to the other organ of each animal an equal amount of vehicle containing substantially optically pure L-DFMO, substantially optically pure D-DFMO, racemic DFMO, or non-racemic DFMO including a preponderance of L-DFMO. After thirteen applications (one application per day for five days a week), the flank organs are shaved and the amount of recovered hair (hair mass) from each is weighed. For certain experiments, where indicated, the treatment period was for less than 13 applications. The reduced treatment period allowed for determination of onset in activity. Percent-reduction of hair growth is calculated by subtracting the hair mass (mg) value of the test compound treated side from the hair mass value of the vehicle treated side; the delta value obtained is then divided by the hair mass value of the vehicle treated side, and the resultant number is multiplied by 100. Visual evaluations comparing hair regrowth between the drug treated and the vehicle control site were made generally on day-8, day-15 and on day-19. These observations provide an identification of onset in activity (and thus efficacy). The above-described assay will be referred to herein as the “Golden Syrian Hamster” assay The efficacy of DFMO-containing compositions containing greater than 90% L-DFMO (“L-DFMO” for purposes of the below assays), racemic DFMO (“D,L-DFMO”), and greater than 90% D-DFMO (or “D-DFMO” for purposes of the below assays) was determined using the Golden Syrian Hamster assay. The L-DFMO produced a substantially greater hair mass reduction than the D-DFMO or D,L-DFMO (Table 1). The average inhibition at the 0.3% dose for the L-, D- and D,L-DFMO was 43±6%, 19±11% and 25±9%, respectively.

[4] = test system: flank organs (hair growth) of Golden Syrian hamsters; experiment: Twice a Week Golden Syrian Hamster assay; assay type: in vivo; settings: dose 1%, 2×/wk, vehicle of Example 2
Source text: Male intact Golden Syrian hamsters are considered acceptable models for human beard hair growth in that they display oval shaped flank organs, one on each side, each about 8 mm. in major diameter. These organs produce fine light colored hair typical of the animal pelage found on the body. In response to androgens the flank organs produce dark coarse hair similar to male human beard hair. To evaluate the effectiveness of a composition, the flank organs of each of a group of hamsters are depilated by applying a thioglycolate-based chemical depilatory (Surgex) and/or shaved. To one organ of each animal 10 μl of vehicle alone once a day is applied, while to the other organ of each animal an equal amount of vehicle containing substantially optically pure L-DFMO, substantially optically pure D-DFMO, racemic DFMO, or non-racemic DFMO including a preponderance of L-DFMO. After thirteen applications (one application per day for five days a week), the flank organs are shaved and the amount of recovered hair (hair mass) from each is weighed. For certain experiments, where indicated, the treatment period was for less than 13 applications. The reduced treatment period allowed for determination of onset in activity. Percent-reduction of hair growth is calculated by subtracting the hair mass (mg) value of the test compound treated side from the hair mass value of the vehicle treated side; the delta value obtained is then divided by the hair mass value of the vehicle treated side, and the resultant number is multiplied by 100. Visual evaluations comparing hair regrowth between the drug treated and the vehicle control site were made generally on day-8, day-15 and on day-19. These observations provide an identification of onset in activity (and thus efficacy). The Golden Syrian Hamster assay was modified so that the animals received a reduced treatment frequency with DFMO, namely twice per week instead of five times a week.

[5] = test system: Hamster flank organ hair follicles; experiment: Golden Syrian Hamster hair follicle spatial mass assay (image analysis); assay type: in vivo
Protocol: as §1

[6] = test system: flank organ hair regrowth of Golden Syrian hamsters; experiment: Golden Syrian Hamster visual efficacy assay; assay type: in vivo; settings: dose 2%; for Number of animals demonstrating maximal efficacy (observation score of +3) after full three weeks of treatment / Percent of animals demonstrating maximal efficacy (observation score of +3) after full three weeks of treatment: vehicle of Example 2; for Number of animals demonstrating efficacy (score of +1 or greater) after two weeks of treatment / Percent of animals demonstrating efficacy (score of +1 or greater) after two weeks of treatment: vehicle of Example 2, blinded visual score
Source text: Male intact Golden Syrian hamsters are considered acceptable models for human beard hair growth in that they display oval shaped flank organs, one on each side, each about 8 mm. in major diameter. These organs produce fine light colored hair typical of the animal pelage found on the body. In response to androgens the flank organs produce dark coarse hair similar to male human beard hair. To evaluate the effectiveness of a composition, the flank organs of each of a group of hamsters are depilated by applying a thioglycolate-based chemical depilatory (Surgex) and/or shaved. To one organ of each animal 10 μl of vehicle alone once a day is applied, while to the other organ of each animal an equal amount of vehicle containing substantially optically pure L-DFMO, substantially optically pure D-DFMO, racemic DFMO, or non-racemic DFMO including a preponderance of L-DFMO. After thirteen applications (one application per day for five days a week), the flank organs are shaved and the amount of recovered hair (hair mass) from each is weighed. For certain experiments, where indicated, the treatment period was for less than 13 applications. The reduced treatment period allowed for determination of onset in activity. Percent-reduction of hair growth is calculated by subtracting the hair mass (mg) value of the test compound treated side from the hair mass value of the vehicle treated side; the delta value obtained is then divided by the hair mass value of the vehicle treated side, and the resultant number is multiplied by 100. Visual evaluations comparing hair regrowth between the drug treated and the vehicle control site were made generally on day-8, day-15 and on day-19. These observations provide an identification of onset in activity (and thus efficacy). The assay in a ‘blinded’ study included visual observations comparing the regrowth of hair on the DFMO treated flank organ with the vehicle treated flank organ during the course of treatment. Scores were assigned from 0 to +3. 0, no difference; +1, DFMO treated shorter than vehicle treated indicating efficacy; +2, DFMO treated much shorter than vehicle treated; +3, DFMO treated nearly bald indicating maximal efficacy. […] This assay will be referred to herein as the “Golden Syrian Hamster visual efficacy” assay.

[7] = 4 Days, dose 1%, vehicle of Example 2
[8] = 7 Days, dose 0.5%, vehicle of Example 2 (Table 5)
[9] = 7 days, dose 0.5%, vehicle of Example 2

SMILES	inhibition at 500 µM ([1]; Homo sapiens, 168 h, read-out: hair follicle growth inhibition (increase in hair fiber length, as compared to controls)) [%]	% Inhibition of Hair Follicle Density [2]	Hair Mass in mg (drug treated) [3] [mg]	Percent inhibition (hair mass) [3] [%]	Hair Mass in mg (drug treated) [4] [mg]	Hair follicle mass as determined by image analysis: particle area (×10^6), Treated [5, 7]	Inhibition % of hair follicle mass [5, 7]	Inhibition % of hair follicle mass [5, 8]	Hair follicle mass as determined by image analysis: particle area (×10^6), Treated [5, 9]	Number of animals demonstrating maximal efficacy (observation score of +3) after full three weeks of treatment [6]	Percent of animals demonstrating maximal efficacy (observation score of +3) after full three weeks of treatment [6] [%]	Number of animals demonstrating efficacy (score of +1 or greater) after two weeks of treatment [6]	Percent of animals demonstrating efficacy (score of +1 or greater) after two weeks of treatment [6] [%]	Percent of animals demonstrating efficacy (score of +1 or greater) after two weeks of treatment ([6]; listed as D, L-DFMO) [%]	Percent of animals demonstrating maximal efficacy (observation score of +3) after full three weeks of treatment ([6]; listed as racemic DFMO) [%]	hair follicle growth inhibition (increase in hair fiber length, as compared to controls) [1] [%]	hair follicle mass reduction, fold greater than by D,L-DFMO ([5]; 0.5% dose, 7 days (Table 5)) [fold]	increase in efficacy (hair follicle spatial mass), fold versus D,L-DFMO ([5]; 0.5% dose, 7 days, another assay (Table 6)) [fold]	hair follicle mass reduction, fold greater than by D,L-DFMO ([5]; 1% dose, 4 days) [fold]	% Inhibition of Hair Follicle Mass ([5]; 7 days, dose 0.5%, another assay (Table 6))
NCCC[C@](N)(C(=O)O)C(F)F (racemic) [D,L-DFMO, α-Difluoromethylornithine]	1 ± 12	no effect; also recorded: No Inhibition	1.53 ± 0.19	25±9	1.74 ± 0.18	4.89 ± 0.9 ×10^6	20% and 20 ± 9%	15% and 15 ± 13%	2.71 ± .71 ×10^6	1 out of 8	13	3 out of 8	38	38	13	–	–	–	–	–
NCCC[C@@](N)(C(=O)O)C(F)F [D-DFMO]	–	–	1.39 ± 0.12	19±11	1.80 ± 0.18	–	–	–	–	0 out of 8	–	2 out of 8	25	–	–	4±13	–	–	–	–
NCCC[C@](N)(C(=O)O)C(F)F [L-DFMO, L-α-difluoromethylornithine]	–	45% and 45 ± 5%	1.06 ± 0.14	43±6	1.83 ± 0.38	4.23 ± 1.1 ×10^6	43% and 43 ± 9%	58% and 58 ± 11%	2.22 ± .94 ×10^6	5 out of 8	–	7 out of 8	–	–	–	36±12	~4	~4	2	41% and 41 ± 15%
